{"source": "patent US5571799A", "about": "“(2'-5') oligoadenylate analogues useful as inhibitors of host-v5.-graft response” (Basco, Ltd., priority 1994, dated 1996)", "key": {"T-killers and T-helpers": {"tested_on": "T-killers and T-helpers", "experiment": "Immunosuppressive activity in vivo in monkeys", "parameters": "species or system Macaque Rh. monkeys", "conditions": "monkeys, IV, disodium salt", "method": "(§1) The experiments were performed on 4 year-old Macaque Rh. monkeys. The levels of the principal subpopulations of T-lymphocytes, IgA, IgG, IgM and the amount of α- and γ-interferon and interleukin II after administration (2'-5')olygoadenylate and its analogies at the concentration of 50 and 25 μg/kg of the body weight was investigated.\n(§2) FLOW CYTOFLUOROGRAFIC ANALYSIS OF LYMPHOCYTE SUBSETS\n(§3) Blood samples (100 μl of whole blood) were placed into a 12×17 tube. To these cells 20 μl of purified monoclonal antibodies were added with specificity for human cytotoxic/suppressor cells anti-Leu-2a (CD8), human helper/inducer anti-Leu-3a (CD4) and FITC conjugated monoclonal antibodies with specificity for natural killer cells-anti-Leu11c (CD16) (Becton Dickinson, San Jose). After 30 minutes incubation on ice, the cells were washed once and 20 μl of goat-antimouse chain phycoerythrin (Sigma P1286) conjugate were added to the tube with anti-Leu-2a and anti-Leu-3a monoclonal antibodies.\n(§4) After erythrocyte lysing with FACS lysing solution (Becton Dickinson, San Jose) the cells were analyzed on FACScan flow cytometer (Becton Dickinson, San Jose) with scatter gate set on lymphocyte fraction."}, "[1]": {"tested_on": "T-lymphocytes (murine splenocytes) stimulated with Concanavalin A", "experiment": "In vitro blast-transformation of murine lymphocytes, Con A (T-lymphocyte mitogen), [3H]-thymidine", "format": "cell-based, mouse (CBA)", "conditions": "Con A 5 μg/ml; 5 × 10^-6 M; control 22,296", "source_text": "(§5) The immune reactions in an organism begins with the division of lymphocytes. In vitro investigation of the lymphocyte blast-transformationreaction under the influence of mitogens makes it possible to use this model system to select chemically synthesized 2'-5'A3 analogues which suppress division of lymphocytes. Using Concanavalin A and lipopolysaccharide as mitogens, the effect of analogues on the division of T- and β-lymphocytes may be investigated.\nCBA mice 8-10 weeks old were used for these experiments. A suspension of mouse splenocytes were obtained by gently teasing spleens with forceps. […] Cultures were maintained in 5% CO2 at 37° C. One μCi of ^3 H-thymidine (Isotop®) was added to each well 4 hours before the end of the incubation period. Incorporation of ^3 H-thymidine into cellular DNA was determined by liquid scintillation counting using standard techniques. Oligoadenylate was added to the medium at the beginning of culturing to achieve the final concentration.\n(§6) (Con A being a mitogen for T-lymphocytes and LPS being a mitogen for β-lymphocytes)."}, "[2]": {"tested_on": "β-lymphocytes (murine splenocytes) stimulated with lipopolysaccharide", "experiment": "In vitro blast-transformation of murine lymphocytes, LPS (β-lymphocyte mitogen), [3H]-thymidine", "format": "cell-based, mouse (CBA)", "conditions": "LPS 0.1 μg/ml; 5 × 10^-6 M; control 27,133", "source_text": "as §5\nCBA mice 8-10 weeks old were used for these experiments. A suspension of mouse splenocytes were obtained by gently teasing spleens with forceps. Lymphocytes cultivated in flat-bottomed 96-well plates (Linbro) in RPMI-1640 medium (Flow Lab.) were supplemented with 2 mM 1-glutamine, 10 μg/ml gentamicin, 10^-5 M 2-mercaptoethanol and 10% heat inactivated fetal calf serum (Flow Lab). Cultures were maintained in 5% CO2 at 37° C. One μCi of ^3 H-thymidine (Isotop®) was added to each well 4 hours before the end of the incubation period. Incorporation of ^3 H-thymidine into cellular DNA was determined by liquid scintillation counting using standard techniques. Oligoadenylate was added to the medium at the beginning of culturing to achieve the final concentration.\nas §6"}, "[3]": {"tested_on": "snake venom phosphodiesterase", "experiment": "Stability to the action of snake venom phosphodiesterase", "format": "in vitro ADME", "method": "Determination of (2'-5')oligoadenylates and analogues stability to the action of snake venom phosphodiesterase\nUpon entering an organism 2'-5'A3 and the analogues are quickly hydrolyzed to monomeric compound(s). Prior to administration of 2'-5'A3 analogues in vivo to animal, it was considered necessary to determine their stability towards snake venom phosphodiesterase in comparison to the parent 2'-5'A3.\nThe solution of 3 μg of the snake venom phosphodiesterase (Boehringer Mannheim cat. No. 108260) in 30 μl of 0.1 M Tris HCl buffer, containing 0.002 M MgCl2 (pH 8.78) is added to the solution of 4-5·10^-7 M trimer in 100 μl of the same buffer. The solution was left standing at 20° C. At regular intervals, 10 μl samples were taken, heated at 90° C. for 1 minute and preparative thin layer chromatography was performed on the Silufole™ plates, using a 7:1:2 mixture of isopropanol:aqueous ammonia:water.\nThe spot, corresponding to the initial trimer, was cut out, the substance was extracted with 2 ml of 0.5% solution of the dodecylsulfate sodium salt solution for 2 hours, and the optical density of the solution was determined at 260 nm."}, "T-helpers": {"tested_on": "T-helpers", "experiment": "Immune system of monkeys: T-helpers, flow cytofluorografic analysis", "format": "in vivo, Macaque Rh. monkeys", "method": "as §1, §2, §3, §4"}, "T-suppressors": {"tested_on": "T-suppressors", "experiment": "Immune system of monkeys: T-suppressors, flow cytofluorografic analysis", "format": "in vivo, Macaque Rh. monkeys", "method": "as §1, with “Immunosuppressive activity of the prototype 2'-5'A3 and two analogues (2'-5')A2 Ar-epoxy and (2'-5')A2 A^l-epoxy were investigated in monkeys. The experiments” for “The experiments”\nas §2, §3, §4"}, "[4]": {"tested_on": "Type I and II herpes virus", "conditions": "cited from earlier work"}}, "note": "Entries after “also recorded” stand apart in the source; their conditions may differ.", "data": [{"substance": "Adenylyl (2'-5')adenylyl (2'-5')-9-(2,3-anhydro-β-D-lyxofuranosyl) adenine disodium salt [(2'-5')A2 A^l-epoxy]", "values": [{"measurement": "immunosuppressive activity, in words", "setting": "T-killers and T-helpers", "value": "considerably lower than that exhibited by (2'-5')A2 Ar-epoxy; also recorded: exhibit immunosuppressive activity in the in vivo experiments"}, {"measurement": "immunosuppressive activity, in words", "setting": "T-killers and T-helpers; listed as (2 -5')A2 A^l-epoxy", "value": "strong immunosuppressive activity specifically against T-killers and T-helpers"}, {"measurement": "DNA synthesis at [^3 H]-thymidine [incorporated counts/min.]", "setting": "[1]", "value": "15,749 counts/min."}, {"measurement": "DNA synthesis at [^3 H]-thymidine [incorporated counts/min.]", "setting": "[2]", "value": "10,828 counts/min."}, {"measurement": "T 1/2 (time for optical density of initial trimer to decrease by 50%)", "setting": "[3]; 20° C., 0.1 M Tris HCl, 0.002 M MgCl2, pH 8.78", "value": 10.5, "unit": "h"}, {"measurement": "stability / resistance to phosphodiesterase", "setting": "[3]; in words", "value": "significantly more resistant towards hydrolysis by phosphodiesterase"}, {"measurement": "T-helpers", "setting": "T-helpers; Table 8, single IV 25 μg/kg, day 2, control (day before) 26.2", "value": 27, "unit": "%"}, {"measurement": "T-helpers", "setting": "T-helpers; Table 8, single IV 25 μg/kg, day 4, control (day before) 26.2", "value": 25.3, "unit": "%"}, {"measurement": "T-helpers", "setting": "T-helpers; Table 9, single IV 50 μg/kg, day 2, control (day before) 22", "value": 20.5, "unit": "%"}, {"measurement": "T-helpers", "setting": "T-helpers; Table 9, single IV 50 μg/kg, day 4, control (day before) 22", "value": 18.4, "unit": "%"}, {"measurement": "T-suppressors", "setting": "T-suppressors; Table 8, single IV 25 μg/kg, day 2, control (day before) 53.1", "value": 44, "unit": "%"}, {"measurement": "T-suppressors", "setting": "T-suppressors; Table 8, single IV 25 μg/kg, day 4, control (day before) 53.1", "value": 43.4, "unit": "%"}, {"measurement": "T-suppressors", "setting": "T-suppressors; Table 9, single IV 50 μg/kg, day 2, control (day before) 42", "value": 44, "unit": "%"}, {"measurement": "T-suppressors", "setting": "T-suppressors; Table 9, single IV 50 μg/kg, day 4, control (day before) 42", "value": 43.4, "unit": "%"}, {"measurement": "activity against Type I and II herpes virus, in words", "setting": "[4]", "value": "active against the Type I and II herpes virus"}]}]}
